Measurements as given in patent US8846661B2, “Diazahomoadamantane derivatives and methods of use thereof” (AbbVie Inc., priority 2009, dated 2014).

Target: α7 NNR (UniProt Q05941)
Settings: [3H]-DPPB binding
Description: [^3H]-DPPB, [^3H]-(S,S)-2,2-dimethyl-5-(6-phenyl-pyridazin-3-yl)-5-aza-2-azonia-bicyclo[2.2.1]heptane iodide, binding to the α7 NNR subtype was determined using membrane enriched fractions from rat brain minus cerebellum or human cortex (ABS Inc., Wilmington, Del.) as described in Anderson, D. J.; et al., J. Pharmacol. Exp. Ther. 2008, 324: 179-187 which is incorporated herein by reference. Briefly, pellets were thawed at 4° C., washed and resuspended with a Polytron at a setting of 7 in 30 volumes of BSS-Tris buffer (120 mM NaCl, 5 mM KCl, 2 mM CaCl2, 2 mM MgCl2, and 50 mM Tris-C1, pH 7.4, 4° C.). Seven log-dilution concentrations of test compounds containing 100-200 μg of protein, and 0.5 nM [^3H]-DPPB (62.8 Ci/mmol; R46V, Abbott Labs) were incubated in a final volume of 500 μL for 75 minutes at 4° C. in duplicate. Non-specific binding was determined in the presence of 10 μM methyllycaconitine. Bound radioactivity was collected on Millipore MultiScreen® harvest plates FB presoaked with 0.3% polyethyleneimine using a Packard cell harvester, washed with 2.5 mL ice-cold buffer, and radioactivity was determined using a Packard TopCount Microplate beta counter. IC50 values were determined by nonlinear regression in Microsoft® Excel or Assay Explorer. K, values were calculated from the IC50s using the Cheng-Prusoff equation, where Ki=IC50/(1+[Ligand]/KD) and are shown in Table 1.

Molecule	Ki [nM]
4-[5-(3,4-difluorophenyl)pyridin-3-yl]-1,4-diazatricyclo[4.3.1.1^3s]undecane [Example 99]	> 10000
Clc1ccc2nc(N3CC4CC5CC3CN(C5)C4)oc2c1 (stereo not shown) [Example 112, 4-(6-chloro-1,3-benzoxazol-2-yl)-1,4-diazatricyclo[4.3.1.1^3,8]undecane]	35.5
O=C(c1n[nH]c2ccccc12)N1CC2CC3CC1CN(C3)C2 (stereo not shown) [Example 57, 4-(1H-indazol-3-ylcarbonyl)-1,4-diazatricyclo[4.3.1.1^3,8]undecane]	23.6
c1cc2cc(-c3ccc(N4CC5CC6CC4CN(C6)C5)nn3)ccc2s1 (stereo not shown) [Example 8, 4-[6-(1-benzothien-5-yl)pyridazin-3-yl]-1,4-diazatricyclo[4.3.1.1^3,8]undecane]	3.5
Fc1ccc(-c2cnc(N3CC4CC5CC3CN(C5)C4)s2)cc1 (stereo not shown) [Example 110, 4-[5-(4-fluorophenyl)-1,3-thiazol-2-yl]-1,4-diazatricyclo[4.3.1.1^3,8]undecane]	53.6
O=S1(=O)c2ccccc2-c2ccc(N3CC4CC5CC3CN(C5)C4)cc21 (stereo not shown) [Example 5, 4-(5,5-dioxidodibenzo[b,d]thien-3-yl)-1,4-diazatricyclo[4.3.1.1^3,8]undecane]	2.3
Cc1ccc(-c2cnc(N3CC4CC5CC3CN(C5)C4)s2)cc1 (stereo not shown) [Example 106, 4-[5-(4-methylphenyl)-1,3-thiazol-2-yl]-1,4-diazatricyclo[4.3.1.1^3,8]undecane]	26.4
O=C1NC2CC3CC1CN(C3)C2 (stereo not shown) [Example 1, 1,4-diazatricyclo[4.3.1.1^3,8]undecan-5-one]	701
Clc1ccc2nc(N3CC4CC5CC3CN(C5)C4)sc2c1 (stereo not shown) [Example 111, 4-(6-chloro-1,3-benzothiazol-2-yl)-1,4-diazatricyclo[4.3.1.1^3,8]undecane]	114
Fc1cccc(-c2cnc(N3CC4CC5CC3CN(C5)C4)s2)c1 (stereo not shown) [Example 108, 4-[5-(3-fluorophenyl)-1,3-thiazol-2-yl]-1,4-diazatricyclo[4.3.1.1^3,8]undecane]	37.7
O=C(c1cc2ccsc2cn1)N1CC2CC3CC1CN(C3)C2 (stereo not shown) [Example 3, 4-(thieno[2,3-c]pyridin-5-ylcarbonyl)-1,4-diazatricyclo[4.3.1.1^3,8]undecane]	11.6
c1cc(-c2cncc(N3CC4CC5CC3CN(C5)C4)c2)c2cc[nH]c2c1 (stereo not shown) [Example 104, 4-[5-(1H-indol-4-yl)pyridin-3-yl]-1,4-diazatricyclo[4.3.1.1^3,8]undecane]	26.3
COc1ccc(-c2cnc(N3CC4CC5CC3CN(C5)C4)s2)cc1 (stereo not shown) [Example 105, 4-[5-(4-methoxyphenyl)-1,3-thiazol-2-yl]-1,4-diazatricyclo[4.3.1.1^3,8]undecane]	133
c1ccc2sc(N3CC4CC5CC3CN(C5)C4)nc2c1 (stereo not shown) [Example 113, 4-(1,3-benzothiazol-2-yl)-1,4-diazatricyclo[4.3.1.1^3,8]undecane]	> 10000
O=C(c1ccc2[nH]ccc2c1)N1CC2CC3CC1CN(C3)C2 (stereo not shown) [Example 37, 4-(1H-indol-5-ylcarbonyl)-1,4-diazatricyclo[4.3.1.1^3,8]undecane]	> 10000
O=C(c1ccc2sccc2n1)N1CC2CC3CC1CN(C3)C2 (stereo not shown) [Example 4, 4-(thieno[3,2-b]pyridin-5-ylcarbonyl)-1,4-diazatricyclo[4.3.1.1^3,8]undecane]	456
